Reference: patent US8907092B2, “Inhibitors of IAP” (Genentech, Inc., priority 2007, dated 2014)
*1 amine or outer side, *2 acyl side, *3 side chain or, on linkers, in order; H or OH if unused. Where a SMILES comes first, the peptide text is derived from it. Bridges are numbered along the chain shown (N, C = ends). Roman numbers before positions name the chains, in order. [ ]: non-standard residue; d: D form. NH(CH2)3(OCH2CH2)2O(CH2)3NH = C(CN[*:1])COCCOCCOCCCN[*:2]; Dip = N[C@H](C(=O)O)C(c1ccccc1)c1ccccc1; Chg = N[C@H](C(=O)O)C1CCCCC1; NMeA = CN[C@@H](C)C(=O)O; dNMeA = CN[C@H](C)C(=O)O

target: T1, MLXBIR3SG (Homo sapiens, UniProt Q96CA5, S150G); assay: Fluorescence Polarization Peptide Binding Assay; conditions: competition with 5 nM AVP-diPhe-FAM probe, MLXBIR3SG at 30 nM
T1 sequence (Q96CA5 with tags, fused parts or gaps S150G): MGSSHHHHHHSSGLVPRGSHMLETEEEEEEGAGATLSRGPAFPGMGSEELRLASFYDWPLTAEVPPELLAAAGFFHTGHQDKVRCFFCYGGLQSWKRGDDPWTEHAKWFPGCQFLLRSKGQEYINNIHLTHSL
Procedure: In the following experiments was used a chimeric BIR domain referred to as MLXBIR3SG in which 11 of 110 residues correspond to those found in XIAP-BIR3, while the remainder correspond to ML-IAP-BIR. […] The improved caspase-9 inhibition of the chimeric BIR domain MLXBIR3SG has been correlated with increased inhibition of doxorubicin-induced apoptosis when transfected into MCF7 cells.
Polarization experiments were performed on an Analyst HT 96-384 (Molecular Devices Corp.) according to the procedure of Keating, S. M., Marsters, J, Beresini, M., Ladner, C., Zioncheck, K., Clark, K., Arellano, F., and Bodary., S. (2000) in Proceedings of SPIE: In Vitro Diagnostic Instrumentation (Cohn, G. E., Ed.) pp 128-137, Bellingham, Wash. Samples for fluorescence polarization affinity measurements were prepared by addition of 1:2 serial dilutions starting at a final concentration of 5 μM of MLXBIR3SG in polarization buffer (50 mM Tris [pH 7.2], 120 mM NaCl, 1% bovine globulins 5 mM DTT and 0.05% octylglucoside) to 5-carboxyflourescein-conjugated AVPdi-Phe-NH2 (AVP-diPhe-FAM) at 5 nM final concentration.
The reactions were read after an incubation time of 10 minutes at room temperature with standard cut-off filters for the fluorescein fluorophore (λex=485 nm; λem=530 nm) in 96-well black HE96 plates (Molecular Devices Corp.). Fluorescence values were plotted as a function of the protein concentration, and the IC50s were obtained by fitting the data to a 4-parameter equation using Kaleidograph software (Synergy software, Reading, Pa.). Competition experiments were performed by addition of the MLXBIR3SG at 30 nM to wells containing 5 nM of the AVP-diPhe-FAM probe as well as 1:3 serial dilutions of antagonist compounds starting at a concentration of 300 μM in the polarization buffer. Samples were read after a 10-minute incubation. Fluorescence polarization values were plotted as a function of the antagonist concentration, and the IC50 values were obtained by fitting the data to a 4-parameter equation using Kaleidograph software (Synergy software, Reading, Pa.) Inhibition constants (Ki) for the antagonists were determined from the IC50 values.

Compound | IC50 [nM]
CN[C@@H](C)C(=O)N[C@H](C(=O)N1CC(OCc2ccc(C#CC#Cc3ccc(CO[C@H]4C[C@@H](C(=O)Nc5snnc5-c5ccccc5)N(C(=O)[C@@H](NC(=O)[C@H](C)NC)C5CCCCC5)C4)cc3)cc2)C[C@H]1C(=O)Nc1snnc1-c1ccccc1)C1CCCCC1 (stereo partly drawn) [compound 4] | 2410
CN[C@@H](C)C(=O)N[C@H](C(=O)N1CCC[C@H]1C(=O)N[C@H](C(=O)NCCCOCCOCCOCCCNC(=O)[C@@H](NC(=O)[C@@H]1CCCN1C(=O)[C@@H](NC(=O)[C@@H](C)NC)C1CCCCC1)C(c1ccccc1)c1ccccc1)C(c1ccccc1)c1ccccc1)C1CCCCC1 [compound 10] (I: H-[NMeA][Chg]P[Dip] / II: H-[dNMeA][Chg]P[Dip]; linker I:C-II:C via NH(CH2)3(OCH2CH2)2O(CH2)3NH) | 1320
CN[C@@H](C)C(=O)N[C@H](C(=O)N1CCC[C@H]1C(=O)Nc1sc(-c2nccs2)nc1-c1ccccc1)c1ccc(OCC#CC#CCOc2ccc([C@H](NC(=O)[C@H](C)N)C(=O)N3CCC[C@H]3C(=O)Nc3sc(-c4nccs4)nc3-c3ccccc3)cc2)cc1 [compound 11] | 1030
CN[C@@H](C)C(=O)N[C@H](C(=O)N1CCC[C@H]1C(=O)Nc1sc(-c2nccn2C)nc1-c1ccccc1)c1ccc(OCC#CC#CCOc2ccc([C@H](NC(=O)[C@H](C)NC)C(=O)N3CCC[C@H]3C(=O)Nc3sc(-c4nccn4C)nc3-c3ccccc3)cc2)cc1 [compound 12] | 1100
CN[C@@H](C)C(=O)N[C@H](C(=O)N1CCC[C@H]1C(=O)Nc1sc(-c2ccccn2)nc1-c1ccccc1)c1ccc(OCC#CC#CCOc2ccc([C@H](NC(=O)[C@H](C)NC)C(=O)N3CCC[C@H]3C(=O)Nc3sc(-c4nccn4C)nc3-c3ccccc3)cc2)cc1 [compound 13] | 3820
CN[C@@H](C)C(=O)N[C@H](C(=O)N1CCC[C@H]1C(=O)Nc1sc(-c2ccccn2)nc1-c1ccccc1)c1ccc(OCC#CC#CCOc2ccc([C@H](NC(=O)[C@H](C)NC)C(=O)N3CCC[C@H]3C(=O)Nc3sc(-c4ccccn4)nc3-c3ccccc3)cc2)cc1 [compound 14] | 2350
CN[C@@H](C)C(=O)N[C@H](C(=O)N1CCC[C@H]1C(=O)Nc1sc(C(=O)NCCCCCCCCCCCNC(=O)c2nc(-c3ccccc3)c(NC(=O)[C@@H]3CCCN3C(=O)[C@@H](NC(=O)[C@H](C)NC)C3CCCCC3)s2)nc1-c1ccccc1)C1CCCCC1 [compound 15] | 3830
CN[C@@H](C)C(=O)N[C@H](C(=O)N1CCC[C@H]1C(=O)Nc1sc(C(=O)NCCOCCOCCNC(=O)c2nc(-c3ccccc3)c(NC(=O)[C@@H]3CCCN3C(=O)[C@@H](NC(=O)[C@H](C)NC)C3CCCCC3)s2)nc1-c1ccccc1)C1CCCCC1 [compound 16] | 234
CN[C@@H](C)C(=O)N[C@H](C(=O)C1CCCN1c1nc2c(-c3ccccc3)nccc2s1)C1CCN(C(=O)NCCCCCCNC(=O)N2CCC([C@H](NC(=O)[C@H](C)NC)C(=O)N3CCC[C@H]3c3nc4c(-c5ccccc5)nccc4s3)CC2)CC1 (stereo partly drawn) [compound 17] | 168
CN[C@@H](C)C(=O)N[C@H](C(=O)N1CCC[C@H]1C(=O)Nc1sc(C(=O)NCC(O)CNC(=O)c2nc(-c3ccccc3)c(NC(=O)[C@@H]3CCCN3C(=O)[C@@H](NC(=O)[C@H](C)NC)C3CCCCC3)s2)nc1-c1ccccc1)C1CCCCC1 [compound 22] | 378
CN[C@@H](C)C(=O)N[C@H](C(=O)N1CCC[C@H]1C(=O)Nc1sc(C(=O)NCC(C)(C)CNC(=O)c2nc(-c3ccccc3)c(NC(=O)[C@@H]3CCCN3C(=O)[C@@H](NC(=O)[C@H](C)NC)C3CCCCC3)s2)nc1-c1ccccc1)C1CCCCC1 [compound 23] | 679
CN[C@@H](C)C(=O)N[C@H](C(=O)N1CCC[C@H]1C(=O)Nc1sc(C(=O)NCc2ccc(CNC(=O)c3nc(-c4ccccc4)c(NC(=O)C4CCCN4C(=O)[C@H](NC(=O)[C@@H](C)NC)C4CCCCC4)s3)cc2)nc1-c1ccccc1)C1CCCCC1 (stereo partly drawn) [compound 24] | 1380
